Entries after “also recorded” stand apart in the source; their conditions may differ.
How the values were obtained:
[1] = system: model mice with choroidal neovascularization (CNV); experiment: CNV formation in laser-induced CNV model mice, intravitreal injection (Experiments 2 and 3); format: in vivo; details: for CNV formation (area of CNV): 20 pmol intraocularly injected immediately after laser irradiation, 7 days, C57B/6J mice, FIG. 2
Description: [Experiment 2: Evaluation of Effect of Inhibiting CNV Formation by Compounds 1 to 3]
The synthesized compounds 1 to 3 and the above reference compound were administered to model mice with choroidal neovascularization (CNV) by intravitreal injection, and the CNV inhibition was evaluated. The details of the experiment are as follows. FIG. 2 illustrates the results.
100 mg/kg of ketamine and 10 mg/kg of xylazine were intraperitoneally injected into 6- to 8-week-old C57B/6J mice (Japan SLC, Inc.), and the mice were placed under anesthesia. Then, eyedrops (SANDOL P) containing tropicamide (5 mg/ml) and phenylephrine (5 mg/ml) were used to dilate the pupil. Any four points of the fundus were irradiated with a 532 nm argon laser (100 mW, 0.1 s, 75 μm) to form new blood vessels. The compound (20 pmol) was intraocularly injected immediately after the laser irradiation, and an ofloxacin (Tarivid) ophthalmic ointment was applied to the corneal surface to prevent infection and drying.
100 mg/kg of ketamine and 10 mg/kg of xylazine were intraperitoneally injected into the mice after 7 days had passed from the laser irradiation, and the mice were placed under anesthesia. Then, the mice underwent thoracotomy and were perfused with FITC-dextran (50 mg/ml; Life Technologies Japan Ltd.) through the left ventricle. After the perfusion, the eyes were enucleated and fixed in 4% paraformaldehyde. After the fixation, the corneas, crystalline lenses, and retinas were removed, and the flat mount of the choroid was obtained. CNV was imaged with a fluorescence microscope (BZ-9000; Keyence Corporation) so that the area of the CNV was measured.
An experiment was performed in the same manner as Experiment 2 by administering the compound 2 at different concentrations (0.2 µM, 2 µM, 20 µM), and the CNV inhibition was evaluated. FIG. 3 illustrates the results.

[2] = system: vascular endothelial growth factor (VEGF); experiment: VEGF protein in culture medium of ARPE-19 cells by ELISA (Experiment 1); format: cell-based, human; details: compound 10 μM, TGF-β 1 nM, 72 hours, FIG. 1
Description: [Experiment 1: Evaluation of Effect of Inhibiting VEGF Expression by Compounds 1 to 3]
The synthesized compounds 1 to 3 and the following reference compound were administered to human retinal pigment epithelial cells (ARPE-19 cell line). After 3 days of cultivation, each culture medium was subjected to ELISA to determine a vascular endothelial growth factor (VEGF). The details of the experiment are as follows. FIG. 1 illustrates the results.
A retinal pigment epithelial cell line, i.e., ARPE-19 was used. The ARPE-19 was cultured in Ham's F-12/DMEM medium containing 10% fetal bovine serum and 1% penicillin-streptomycin solution. The cells were seeded on a 24 well plate at 1.0×10^4 cell/well. On the next day, the culture medium was replaced with 1% fetal bovine serum. Further, the culture medium was removed 24 hours later and replaced with a culture medium (containing 1% fetal bovine serum) to which the compound (10 μM) and TGF-β (1 nM) were added. The culture medium was replaced every 24 hours in the same manner. Then, the culture medium was collected after 72 hours had passed from the administration of the compound. An ELISA kit (manufactured by R&D Systems, Inc.) was used to measure the amount of VEGF protein in the culture medium. The absorbance was measured by an ARVO X5 multiplate reader.

[3] = system: model mice with choroidal neovascularization (CNV); experiment: CNV formation in CNV model mice, ophthalmic ointment (Experiment 4); format: in vivo; details: ophthalmic ointment with 10 g compound 2 per 100 g, 7 μL three times a day, versus base material only, FIG. 4
Description: [Experiment 4: Preparation of Ophthalmic Ointment and Evaluation of Effect of Inhibiting CNV Formation by Using the Ophthalmic Ointment]
An ophthalmic ointment with the following composition was prepared.
60 g of liquid paraffin; and
30 g of white petrolatum.
An experiment was performed in the same manner as Experiment 2 except that the ophthalmic ointment was applied in a dose of 7 μL three times a day, instead of the intravitreal injection, and the CNV inhibition was evaluated. Moreover, an ophthalmic ointment containing only a base material was used as a control, and the same experiment was performed. FIG. 4 illustrates the results. A of FIG. 4 is a graph that indicates the area of CNV.

SRPK (kinase) = details: see WO 2005/063293; cited from earlier work
[4] = see WO 2005/063293; cited from earlier work
[5] = system: retinal neovascularization; details: Nowak D G, Bates D O et al., J. Bio. Chem. 2010; cited from earlier work

Row | SMILES | CNV formation (area of CNV) [1] | melting point | amount of VEGF protein in the culture medium [2] | concentration dependence of reduction of CNV formation ([1]; intravitreal injection, FIG. 3) | CNV formation (area of CNV) [3] | SRPK (kinase) inhibition (SRPK (kinase)) | antiviral activity [4] | retinal neovascularization [5]
1 | COc1cc(/C=C2/C(=O)NN(c3ccc(Cl)c(Cl)c3)C2=O)ccc1O [compound 1, 1-(3,4-dichlorophenyl)-4-(4-hydroxy-3-methoxybenzylidene)pyrazolidine-3,5-dione] | significant | 260 °C (dec.) | – | – | – | – | – | –
2 | COc1cc(/C=C2\C(=N)N3N=C(C(F)(F)F)SC3=NC2=O)ccc1O [compound 2, 6-(4-hydroxy-3-methoxybenzylidene)-5-imino-2-(trifluoromethyl)-5,6-dihydro-7H-[1,3,4]thiadiazolo[3,2-a]pyrimidin-7-one] | significant; also recorded: more prominent | 224 to 225 °C | particularly significant | reduced the CNV formation in a concentration-dependent manner | reduced the CNV formation | – | – | –
3 | O=C(Nc1cc(C(F)(F)F)ccc1N1CCCCC1)c1ccncc1 [reference compound] | – | – | – | – | – | inhibits SRPK | has antiviral activity | suppress retinal neovascularization
